Results from patent US6737383B1, “Herbicidal oxadiazolidines” (priority 1999, dated 2004).

Assays:
corn = assay: Test B pre/postemergence corn; format: in vivo, Zea mays
How it was run: (§1)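 Herbicidal effect was estimated by eye on a ten-point control scale after plants spent twelve to sixteen days in a greenhouse following soil or foliar treatment. Foliar sprays targeted plants at one to four leaves; all doses were formulated in a non-phytotoxic solvent with surfactant.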

bedstraw = assay: Test B pre/postemergence bedstraw; format: in vivo, Galium aparine
How it was run: as §1

rice = assay: Test B flood test rice; format: in vivo, Oryza sativa
How it was run: (§2)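 Each value is a visual injury score relative to controls, with 10 meaning complete control and 0 no effect. Evaluation took place twelve to sixteen days after the 2-leaf-stage plants were treated and kept in the greenhouse.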

pigweed = assay: Test B pre/postemergence pigweed; format: in vivo, Amaranthus retroflexus
How it was run: as §1

bamyardgrass = assay: Test B flood test barnyardgrass; format: in vivo, Echinochloa crus-galli
How it was run: as §2

surinam grass = assay: Test B pre/postemergence surinam grass; format: in vivo, Brachiaria decumbens
How it was run: as §1

blackgrass = assay: Test B pre/postemergence blackgrass; format: in vivo, Alopecurus myosuroides
How it was run: as §1

velvetleaf = assay: Test B pre/postemergence velvetleaf; format: in vivo, Abutilon theophrasti; details: for Plant response rating, Velvetleaf: Rate 250 g/ha
How it was run: as §1

[1] = Postemergence, Rate 125 g/ha, scale of 0 to 10 where 0 is no effect and 10 is complete control
[2] = Postemergence, Rate 250 g/ha, scale 0 to 10, 0 no effect, 10 complete control
[3] = Preemergence, Rate 62 g/ha, scale 0 to 10 (0 no effect, 10 complete control)
[4] = Preemergence, Rate 125 g/ha, scale 0 to 10 (0 no effect, 10 complete control)
[5] = Preemergence, Rate 250 g/ha, scale of 0 to 10 where 0 is no effect and 10 is complete control
[6] = Preemergence, Rate 500 g/ha, scale 0 to 10 (0 no effect, 10 complete control)
[7] = Rate 62 g/ha, Postemergence, scale of 0 to 10 where 0 is no effect and 10 is complete control
[8] = Rate 500 g/ha, Postemergence, scale 0 to 10, 0 no effect, 10 complete control
[9] = Postemergence, Rate 62 g/ha, scale 0 to 10, 0 is no effect, 10 is complete control
[10] = Rate 125 g/ha, Postemergence, scale 0 to 10, 0 no effect, 10 complete control
[11] = Rate 250 g/ha, headed Pre-emergence (flood test species), scale 0 to 10 (0 no effect, 10 complete control)
[12] = Rate 500 g/ha, headed Pre-emergence (flood test species), scale 0 to 10 (0 no effect, 10 complete control)
[13] = Rate 500 g/ha, listed under Postemergence (flood test species), scale 0 to 10, 0 no effect, 10 complete control
[14] = Rate 1000 g/ha, Pre-emergence (as headed), scale 0 to 10

CC(C)N(C(=O)n1oc(=O)n(C2CCCCC2)c1=O)c1ccc(Cl)cc1 [Compound 111]
Corn plant response rating (corn; [1]): 0 | Corn plant response rating (corn; [2]): 0 | Corn plant response rating (corn; [3]): 0 | Plant response rating, Corn (corn; [4]): 1 | Plant response rating, Corn (corn; [5]): 4 | Corn plant response rating (corn; [6]): 4 | Corn plant response rating (corn; [7]): 0 | Corn plant response rating (corn; [8]): 0 | Bedstraw plant response rating (bedstraw; [9]): 5 | Bedstraw plant response rating (bedstraw; [2]): 7 | Bedstraw plant response rating (bedstraw; [3]): 0 | Plant response rating, Bedstraw (bedstraw; [4]): 0 | Plant response rating, Bedstraw (bedstraw; [5]): 0 | Bedstraw plant response rating (bedstraw; [6]): 3 | Bedstraw plant response rating (bedstraw; [10]): 5 | Rice plant response rating (rice; Postemergence (flood test species), Rate 125 g/ha, scale of 0 to 10 where 0 is no effect and 10 is complete control): 0 | Rice plant response rating (rice; Rate 62 g/ha, Postemergence section, flood test species, scale of 0 to 10 where 0 is no effect and 10 is complete control): 0 | Plant response rating, Rice (rice; Rate 250 g/ha, Postemergence (flood test), scale 0 to 10, 0 is no effect, 10 is complete control): 0 | Rice plant response rating (rice; [11]): 0 | Plant response rating, Rice (rice; [12]): 0 | Rice plant response rating (rice; [13]): 0 | Rice plant response rating (rice; [14]): 0 | Rice plant response rating (rice; Rate 2000 g/ha, Pre-emergence (as headed), scale 0 to 10): 0 | Redroot pigweed plant response rating (pigweed; [1]): 3 | Redroot pigweed plant response rating (pigweed; [3]): 3 | Plant response rating, Redroot pigweed (pigweed; [4]): 6 | Plant response rating, Redroot pigweed (pigweed; [5]): 8 | Redroot pigweed plant response rating (pigweed; [6]): 8 | Redroot pigweed plant response rating (pigweed; [7]): 3 | Plant response rating, Redroot pigweed (pigweed; Rate 250 g/ha, Postemergence, scale 0 to 10, 0 is no effect, 10 is complete control): 4 | Redroot pigweed plant response rating (pigweed; [8]): 6 | Barnyardgrass plant response rating (bamyardgrass; [9]): 0 | Barnyardgrass plant response rating (bamyardgrass; Rate 125 g/ha, Postemergence section (flood test species), scale 0 to 10, 0 no effect, 10 complete control): 0 | Barnyardgrass plant response rating (bamyardgrass; [11]): 0 | Plant response rating, Barnyardgrass (bamyardgrass; [12]): 0 | Barnyardgrass plant response rating (bamyardgrass; [13]): 0 | Barnyardgrass plant response rating (bamyardgrass; [14]): 0 | Barnyardgrass plant response rating (bamyardgrass; Rate 2000 g/ha, Pre-emergence (as headed), scale 0 to 10, 0 no effect, 10 complete control): 9 | Barnyardgrass plant response rating (bamyardgrass; flood test, listed under Postemergence, Rate 250 g/ha, scale 0 to 10, 0 no effect, 10 complete control): 0 | B. signalgrass plant response rating (surinam grass; [9]): 0 | B. signalgrass plant response rating (surinam grass; [2]): 0 | B. signalgrass plant response rating (surinam grass; [3]): 0 | Plant response rating, B. signalgrass (surinam grass; [4]): 1 | Plant response rating, B. signalgrass (surinam grass; [5]): 1 | B. signalgrass plant response rating (surinam grass; [6]): 4 | B. signalgrass plant response rating (surinam grass; [10]): 0 | B. signalgrass plant response rating (surinam grass; Rate 500 g/ha, Postemergence, scale of 0 to 10 where 0 is no effect and 10 is complete control): 0 | Blackgrass plant response rating (blackgrass; [1]): 3 | Blackgrass plant response rating (blackgrass; [2]): 5 | Blackgrass plant response rating (blackgrass; [3]): 0 | Plant response rating, Blackgrass (blackgrass; [4]): 0 | Plant response rating, Blackgrass (blackgrass; [5]): 2 | Blackgrass plant response rating (blackgrass; [6]): 5 | Blackgrass plant response rating (blackgrass; [7]): 0 | Blackgrass plant response rating (blackgrass; [8]): 7 | Velvetleaf plant response rating (velvetleaf; [1]): 0 | Velvetleaf plant response rating (velvetleaf; [3]): 0 | Velvetleaf plant response rating (0 to 10 scale) (velvetleaf; Preemergence, Rate 125 g/ha, 0 is no effect, 10 is complete control): 0 | Plant response rating, Velvetleaf (velvetleaf; Preemergence, scale of 0 to 10 where 0 is no effect and 10 is complete control): 3 | Velvetleaf plant response rating (velvetleaf; [6]): 7 | Velvetleaf plant response rating (velvetleaf; [7]): 0 | Plant response rating, Velvetleaf (velvetleaf; Postemergence, scale 0 to 10, 0 is no effect, 10 is complete control): 0 | Velvetleaf plant response rating (velvetleaf; [8]): 2
